Structures are written as SMILES.

A short description of this data set: Human HepG2 cell viability assay in 384 well format. Format: toxicity, cell-based. To be noted: HepG2 cells, read-out: Inhibition. More on the design: dose 125 nL, time 70.5 hour; cytotoxicity at 70.5 h: concentration not given beside the values.
On to `COc1c(Br)c(C(=O)NC2CCCC2)nn1C`, for which the cytotoxicity at 70.5 h was -9.06%.

As to `Cc1cc(CN(C)C(=O)c2ccc(N(C)C)nc2)no1`, the cytotoxicity at 70.5 h is -7.16%.

For `Cc1nc(COc2ccc(OC3CCCCNC3=O)cc2)oc1C` (centres undefined), the cytotoxicity at 70.5 h was 1.82%.

As for `c1ccc(CC2(CNCc3ncc[nH]3)CCC2)cc1`, the cytotoxicity at 70.5 h was -2.49%.

As for `CC(NC(=O)NCC1(c2ccc(F)cc2)CC1)c1nncn1C` (centres undefined), the cytotoxicity at 70.5 h is -1.68%.

For `CC(C)C(=O)N1CC2(CCN(CC(C)(C)C)CC2)C1`, the cytotoxicity at 70.5 h was found to be 47.3%.

On to `CCN1C(=O)CC[C@]12CC[C@@H](NC(=O)c1cc(C)on1)CC2`, for which the cytotoxicity at 70.5 h was -7.54%.

As for `CCOCC(=O)N1Cc2nnn(C)c2C(COCc2ccccn2)C1` (centres undefined), the cytotoxicity at 70.5 h was determined as 9.65%.

`Cc1nn2cccnc2c1C(=O)N1CCCC(n2ccnc2C)C1` (centres undefined): the cytotoxicity at 70.5 h is -4.03%.

In the case of `O=C(NCCNc1ccccn1)Nc1cc(C(F)(F)F)c[nH]c1=O`, the cytotoxicity at 70.5 h was -3.73%.

Turning to `Cc1cc(CC(=O)N(C)Cc2cccc(OC(C)C)c2)n[nH]1`, the cytotoxicity at 70.5 h is -9.38%.

For `Cc1ccccc1OCC1CCCN(c2cc(N)nc(N)n2)C1` (centres undefined), the cytotoxicity at 70.5 h is -8.34%.

As to `CC1CCCCN1C(=O)c1coc(COc2cccc3cnccc23)n1` (centres undefined), the cytotoxicity at 70.5 h is -6.78%.

For `Cn1cccc1C(=O)N[C@H]1CN(Cc2ccoc2)[C@@H]2CCCO[C@H]12`, the cytotoxicity at 70.5 h is 17.5%.

Take `CS(=O)(=O)CCCN1CCN(C(C#N)c2ccccc2)CC1` (centres undefined): the cytotoxicity at 70.5 h was determined as 0.393%.

With `CC(C)N(C)Cc1noc2c1CN(C(=O)c1ccsc1)CC2`, the cytotoxicity at 70.5 h was -12.5%.

`Cc1ccc(N2CC[C@H](OCC3CC3)[C@@H]2Cc2cccnc2)nn1`: the cytotoxicity at 70.5 h was found to be 1.2%.

Take `CC(C)NC(=O)CC1COC2(CCN(Cc3ccccc3)CC2)C1` (centres undefined): the cytotoxicity at 70.5 h was -14.2%.

Take `Cc1nn(C)c(C)c1C(=O)NC(C)CC(=O)c1cccs1` (centres undefined): the cytotoxicity at 70.5 h is -11.1%.

With `O=C1CC(c2ccsc2)c2snc(C(=O)O)c2N1` (centres undefined), the cytotoxicity at 70.5 h stood at 8.48%.

As to `Cc1n[nH]c(C)c1NC(=O)C1CCCN(C(=O)NCC(C)C)C1` (centres undefined), the cytotoxicity at 70.5 h was -5.82%.

Turning to `CNC(=O)CC1CC2(CCN(CC3CC3)CC2)Oc2ccccc21` (centres undefined), the cytotoxicity at 70.5 h is -6.72%.

In the case of `Cc1ccc(NC(=O)Nc2c(O)oc3ccccc3c2=O)cc1C`, the cytotoxicity at 70.5 h is -5.07%.

For the compound `COCCNC(=O)N1CCN(C(C)C(=O)NC2CCCC2)CC1` (centres undefined), the cytotoxicity at 70.5 h is -5.61%.

Consider `Cn1nc2c(cc1=O)CN(Cc1coc(-c3cccs3)n1)CC2`, for which the cytotoxicity at 70.5 h is -7.48%.

Take `CC(NC(=O)N1CCSC(C)(C)C1)c1noc(-c2ccccc2)n1` (centres undefined): the cytotoxicity at 70.5 h is -0.307%.

For the compound `Cc1ccc(CNCc2nccn2C)c(OC(C)(C)C)c1`, the cytotoxicity at 70.5 h was -7.39%.

Regarding `CCc1nc(CC(=O)N2CCOCC2c2ncon2)cs1` (centres undefined), the cytotoxicity at 70.5 h was -3.4%.

For `O=C(NCCNC1CCCCC1)c1cccs1`, the cytotoxicity at 70.5 h was -6.1%.

For `CCC(C(=O)NCc1ccccn1)N(c1cccc(C)c1)S(C)(=O)=O` (centres undefined), the cytotoxicity at 70.5 h is -1.44%.

In the case of `O=C(NCCN1CCCCC1)c1cccc(Cl)c1Cl`, the cytotoxicity at 70.5 h is -8.61%.

`CCCN(C)c1ccc(C(=O)Nc2c(C)nn(C(C)C)c2C)cc1`: the cytotoxicity at 70.5 h was -3.3%.

As for `COCCn1c2c(ccc1=O)CCN(C(=O)Cc1cccs1)CC2`, the cytotoxicity at 70.5 h is -5.4%.

For the compound `Cc1nc(C)n(CC2CCCCN2CCCC#N)n1` (centres undefined), the cytotoxicity at 70.5 h was found to be 6.75%.

With `COCCN1CCN(Cc2nccs2)[C@H]2CS(=O)(=O)C[C@H]21`, the cytotoxicity at 70.5 h is -2.69%.

`O=C(COC1CCCCC1)N1CCCC(n2ccnc2)C1` (centres undefined): the cytotoxicity at 70.5 h was -6.58%.

`Cc1cc2n(n1)CC(CNCc1ccnc(-n3ccnc3C)c1)CN2` (centres undefined): the cytotoxicity at 70.5 h was determined as 0.264%.

Regarding `CN(CCNC(=O)N1CCCC1)C(=O)OC(C)(C)C`, the cytotoxicity at 70.5 h was -11.5%.

Regarding `COc1cc(CNC(=O)C2CC(=O)N(C(C)C)C2)ccn1` (centres undefined), the cytotoxicity at 70.5 h was -16.6%.

Turning to `CN(Cc1cccnc1)[C@@H]1CN(C(=O)c2ccco2)[C@@H]2CCCO[C@H]12`, the cytotoxicity at 70.5 h was -10.7%.

Consider `COCCCn1c(CN2CCCC(O)C2)cnc1S(=O)(=O)C1CCCC1` (centres undefined), for which the cytotoxicity at 70.5 h is -5.61%.

As for `Cn1cccc1C(=O)N1CCc2onc(Cn3cccn3)c2C1`, the cytotoxicity at 70.5 h was -5.3%.

With `CN(Cc1cc(Br)cn1C)C(=O)c1ccon1`, the cytotoxicity at 70.5 h is -2.35%.

In the case of `CNC(=O)c1cccnc1NCc1ccc(-n2cccn2)cc1`, the cytotoxicity at 70.5 h amounted to 4%.

As to `CCn1ccnc1CNCC1CCCN1c1cc(NC)ncn1` (centres undefined), the cytotoxicity at 70.5 h was -4.32%.

For `Cc1cnn(CC2CCCN2CC(=O)NC2CCN(C3CC3)CC2)c1` (centres undefined), the cytotoxicity at 70.5 h was -3.72%.

Take `CS(=O)(=O)CC1(CNc2cc(C#N)c3cc(Cl)ccc3n2)CC1`: the cytotoxicity at 70.5 h was -6.39%.

As for `CC(C)(C)n1cc(C(=O)N2CCN(Cc3ccsc3)CC2)cn1`, the cytotoxicity at 70.5 h is -0.132%.

For the compound `N#Cc1ccccc1N1CCN(CCC(=O)N2CCOCC2)CC1`, the cytotoxicity at 70.5 h was -3.68%.

Regarding `CCN1CC(=O)c2sc(NC(C)C)nc2C1`, the cytotoxicity at 70.5 h turned out to be 5.33%.

As for `Cc1cc(CN2CC[C@]3(C[C@@H](OCC(=O)N(C)C)CO3)C2)no1`, the cytotoxicity at 70.5 h was -6.96%.

On to `O=C(O)c1ccnc(-c2ccnc(NCCc3nc4c(s3)CCC4)n2)c1`, for which the cytotoxicity at 70.5 h is -6.73%.

With `Fc1cccc(N2CCOC3(CCCN(c4nncs4)C3)C2)c1` (centres undefined), the cytotoxicity at 70.5 h was -2.67%.

As to `CCCN1CCC2(CC1)COc1ccccc1S(=O)(=O)N(CC1CC1)C2`, the cytotoxicity at 70.5 h is -4.67%.

As to `Cc1nnn2c1COCC(CNC(=O)c1ccnnc1)C2` (centres undefined), the cytotoxicity at 70.5 h is -0.292%.

As to `Cc1cc(C(=O)NCC(C)N2CCc3ccccc32)on1` (centres undefined), the cytotoxicity at 70.5 h came out at 7.49%.

In the case of `CN(C)c1cncc(C2CCN(CC3(O)CCCCC3)CC2)n1`, the cytotoxicity at 70.5 h turned out to be 25.1%.

Regarding `CCC1(CC)CC(=O)N(CC(O)c2cccc(Br)c2)C1=O` (centres undefined), the cytotoxicity at 70.5 h stood at 28.9%.

Take `Fc1cccc(-c2nc(CN3CCOC(Cn4cncn4)C3)co2)c1` (centres undefined): the cytotoxicity at 70.5 h is -15.8%.

`CC(C)C1SCC(=O)Nc2c1cnn2-c1ccc(F)cc1` (centres undefined): the cytotoxicity at 70.5 h was -1.99%.

As for `Cc1cccc(N2CCN(CC(=O)N3CCCC(N(C)C)CC3)CC2)c1` (centres undefined), the cytotoxicity at 70.5 h is -4.61%.

`COCCNC(=O)[C@@H]1CCO[C@@H]2CCN(c3ccc(C)nn3)C[C@@H]21`: the cytotoxicity at 70.5 h was -15.8%.

Regarding `CNc1cc(C)nc(C2CN(Cc3ccc(Cl)cn3)CCO2)c1` (centres undefined), the cytotoxicity at 70.5 h is -5.55%.

Turning to `CN1CC2(COCCN(c3ncccn3)C2)OCC1=O` (centres undefined), the cytotoxicity at 70.5 h was -11.5%.

With `CNC(=O)CN(C)c1nc(-c2ccc(C(N)=O)cc2)nc2c1CCNC2`, the cytotoxicity at 70.5 h was -0.358%.

For the compound `COC(=O)Cn1c(=O)cc(C(F)F)c2c(C)nn(CC(F)F)c21`, the cytotoxicity at 70.5 h is -8.33%.

As to `CC1=C[C@@H](CN2CCC(CO)CC2)[C@H](C(C)C)C[C@H]1Cc1nnc(C)o1`, the cytotoxicity at 70.5 h was -1.39%.

For `CC1=Nc2c(c(=O)[nH]n2C2CCOCC2)C(c2cccc(Br)c2)S1` (centres undefined), the cytotoxicity at 70.5 h came out at 4.78%.

As for `c1ccc(Oc2ccc(OC34CCCN(CC3)C4)cc2)cc1` (centres undefined), the cytotoxicity at 70.5 h was -9.13%.

As to `Cc1nc(C)c(C(=O)N2CCCC2(C)C(=O)NC2CCCC2)s1` (centres undefined), the cytotoxicity at 70.5 h was -3.63%.

Consider `CC(C(=O)NCc1ccc(F)cc1)N(C)CCN1CCOCC1` (centres undefined), for which the cytotoxicity at 70.5 h worked out at 24.4%.

As for `CCc1nnc(CN2CCC(N3CCN(CC)C3=O)CC2)o1`, the cytotoxicity at 70.5 h was -16.5%.

With `Cc1ccc(CNC(=O)Cn2ncc3c2c(C)nn3C)cc1`, the cytotoxicity at 70.5 h was -0.794%.

For the compound `Cc1ccc(-c2cc(N)c(=O)n(CC(=O)NCC3CC3)n2)s1`, the cytotoxicity at 70.5 h was -23.3%.

For the compound `Fc1cnc(N2CCCC3(CCN(c4ncccn4)C3)C2)nc1` (centres undefined), the cytotoxicity at 70.5 h amounted to 13.7%.

As for `O=C(CCSc1ccccc1)NCC1CCN(Cc2ccsc2)CC1`, the cytotoxicity at 70.5 h amounted to 4.4%.

For the compound `CS(=O)(=O)N1CCN(Cc2csc(-c3ncccn3)n2)CC1`, the cytotoxicity at 70.5 h is 15.5%.

As for `O=C(CCN1CCN(c2ccc3nncn3n2)CC1)NC1CCCC1`, the cytotoxicity at 70.5 h is -5.28%.

On to `Cc1nnc(NCc2cccc(OCC3CCCO3)c2)c(C#N)c1C` (centres undefined), for which the cytotoxicity at 70.5 h worked out at 29%.

Regarding `COCCNc1nc(N2CCOCC2)nc2nccnc12`, the cytotoxicity at 70.5 h is -4.36%.

With `COCC(=O)N1CCC2(CC1)COCCN2CCN(C)C`, the cytotoxicity at 70.5 h is -19.5%.

As for `CN(C)C(=O)CNC(=O)c1ccc2c(-c3nccs3)noc2c1`, the cytotoxicity at 70.5 h was -3.55%.

On to `CNC(=O)[C@H]1C[C@@H]2CN(Cc3c(C)noc3C)C[C@@H]2N1C(C)=O`, for which the cytotoxicity at 70.5 h is -3.36%.

`COc1ccc(-c2nnc(SC(C)C(N)=O)[nH]2)c(OC)c1` (centres undefined): the cytotoxicity at 70.5 h was -8.05%.

For the compound `CN1C[C@H](COCC2CC2)[C@H]2CCN(Cc3ccco3)CC[C@H]2C1=O`, the cytotoxicity at 70.5 h was found to be 7.68%.

As for `Cc1ccn(-c2ccc(NCc3cccnc3N3CCCCC3)nn2)n1`, the cytotoxicity at 70.5 h came to 12.6%.

Consider `C=C(C)COc1cccc(CNC(COC)c2ccnn2C)c1` (centres undefined), for which the cytotoxicity at 70.5 h came out at 2.53%.

In the case of `CNC(=O)NC(=O)CSc1ccc2c(c1)CCC2`, the cytotoxicity at 70.5 h was -5.43%.

With `Cc1nc(CN2CCC(CNC(=O)C3(C#N)CCCC3)CC2)oc1C`, the cytotoxicity at 70.5 h was -5.03%.

`CN1CCN(c2ccnc3c(F)cc(Br)cc23)CC1`: the cytotoxicity at 70.5 h is 1.8%.

Turning to `CNC(=O)CN1CCOCC2(CN(CCC(F)(F)F)CCO2)C1` (centres undefined), the cytotoxicity at 70.5 h turned out to be 4.91%.

`Cc1ccc(CCCC(=O)N2CCN(C3CCCN(C)C3)CC2)s1` (centres undefined): the cytotoxicity at 70.5 h was -2.97%.

Consider `Cc1cc2c(cc1NC(N)=O)OCO2`, for which the cytotoxicity at 70.5 h is -4.79%.

In the case of `CCc1nc(C2CCCN(C(=O)CN(C)S(C)(=O)=O)C2)no1` (centres undefined), the cytotoxicity at 70.5 h came out at 3.45%.

Turning to `CC1CCCN(C(=O)c2occc2COc2cccc(C#N)c2)C1` (centres undefined), the cytotoxicity at 70.5 h turned out to be 4.5%.

For the compound `COc1ccc(C)cc1CN(Cc1nc(C)c(C)o1)C1CCN(C)C1` (centres undefined), the cytotoxicity at 70.5 h came to 3.17%.

In the case of `Cn1cc(C(=O)N2CCN(Cc3ccccn3)CC2)ccc1=O`, the cytotoxicity at 70.5 h turned out to be 19.1%.

For `CCc1nc(C2CCCN2C(=O)c2csc(NC(C)=O)n2)no1` (centres undefined), the cytotoxicity at 70.5 h is -1.48%.

With `CN(C)c1nc2n(c(=O)n1)CCN2C(=O)Nc1ccc(Cl)cc1`, the cytotoxicity at 70.5 h was -6.29%.

The record behind these values is ChEMBL document CHEMBL3507680, “University of Dundee, Gates Library screen for HepG2 cell viability”.
